doi:10.1101/2024.12.09.627564, “Cannabinoid inhibition of mechanosensitive K^+ channels” (bioRxiv, 2024)
Positions count from the first letter of the chain named.

How the values were obtained:
[1] = system: voltage-gated sodium channels; conditions: cited from earlier work
[2] = system: TRPV1–4; parameters: method as in PMID 30697147, PMID 31566564; conditions: activation; cited from earlier work
[3] = parameters: method as in PMID 32804502; conditions: slice recordings; cited from earlier work
[4] = target: T1, TRAAKG165R (Homo sapiens, UniProt Q9NYG8, G139R); assay: Excised patch recording of TRAAK mutant G165R; type: biochemical
T1 construct: The transcribed messages encode H. sapiens TRAAK amino acids 1–393; expressed in transfected cells; host or cells: Xenopus laevis oocytes, cRNA injection
T1 sequence (Q9NYG8 1-393 G139R): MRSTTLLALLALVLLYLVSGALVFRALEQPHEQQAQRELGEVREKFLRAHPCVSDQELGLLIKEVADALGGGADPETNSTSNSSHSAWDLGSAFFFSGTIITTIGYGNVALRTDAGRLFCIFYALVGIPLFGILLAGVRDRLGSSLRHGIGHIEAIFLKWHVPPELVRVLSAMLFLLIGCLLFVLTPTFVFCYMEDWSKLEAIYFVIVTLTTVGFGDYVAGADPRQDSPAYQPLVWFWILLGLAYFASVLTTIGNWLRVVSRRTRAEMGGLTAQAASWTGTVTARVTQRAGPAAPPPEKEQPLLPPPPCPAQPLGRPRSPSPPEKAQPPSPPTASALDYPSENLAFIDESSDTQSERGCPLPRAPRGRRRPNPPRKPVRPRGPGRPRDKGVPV
Description: (§1) For patch clamp recording from Xenopus oocytes, genes encoding full-length Homo sapiens TRAAK (UniProt Q9NYG8–2), TREK-1 (UniProt O95069), and TREK-2 (UniProt P57789) were codon optimized for eukaryotic expression, synthesized (Genewiz), and cloned into a modified pGEMHE vector using Xho1 and EcoR1 restriction sites. The transcribed messages encode H. sapiens TRAAK amino acids 1–393, TREK-1 amino acids 1–426, or TREK-2 amino acids 1–538 with an additional three amino acids (SNS) at the C terminus. TRAAK mutants were introduced by polymerase chain reaction (PCR). Linearized DNA was transcribed in vitro using T7 polymerase. […] Currents were recorded at 25 °C from inside-out patches excised from oocytes 1 to 5 d after RNA injection. […]
(§2) Patches were evaluated with voltage-step protocols to confirm TRAAK expression and minimal non-specific leak based on reversal potential. Currents were recorded using an Axopatch 200B amplifier (Molecular Devices) at a bandwidth of 1 kHz and digitized with an Digidata 1550B (Molecular Devices) at 100–500 kHz using pClamp10.7 software. […] In an effort to minimize variability associated with differences in resting membrane tension, we targeted patches with low basal curvature and low resting channel activity and ensured measured pressure difference across the patch was as close to zero as possible at rest to prevent mechanical activation of channels. […]

[5] = target: T2, TRAAKP259L (Homo sapiens, UniProt Q9NYG8, P233L); assay: Excised patch recording of TRAAK mutant P259L; type: biochemical
T2 construct: The transcribed messages encode H. sapiens TRAAK amino acids 1–393; expressed in transfected cells; host or cells: Xenopus laevis oocytes, cRNA injection
T2 sequence (Q9NYG8 1-393 P233L): T1 sequence (Q9NYG8 1-393 G139R) with R139G, P233L
Description: as §1, §2

SMILES: C=C(C)[C@@H]1CCC(C)=C[C@H]1c1c(O)cc(CCCCC)cc1O [CBD, Cannabidiol]
- IC50 [1]: 2000 to 10000 nM
- EC50 [2]: 1000 to 4000 nM
- concentration at which antiepileptic effects are observed [3]: ≤ 100 nM
- IC50 [4]: 356 ± 18 nM
- IC50 [5]: 156 ± 8 nM
